The text below walks through data of paper PMC5443859, “EGFR-targeting peptide-coupled platinum(IV) complexes” (Journal of Biological Inorganic Chemistry, 2017).

SMILES strings stand for the structures. Where only a bound is given, the exact number is not on record here.

Experiment [1] deals with RUMH cells. Briefly: cells. It counts as cell-based. As to conditions: Homo sapiens, EGFR/wt overexpression, 72 h treatment, MTT assay. The method, then: (§1) The following human cell models were used in this study: the renal cell carcinomas RUMH, the squamous cell carcinoma H520, the epidermoid carcinoma A431, as well as the non-small-cell lung cancer (NSCLC) line HCC827 (sources and used medium are summarized in (Table 2). Unless otherwise indicated, the cells were cultivated in humidified incubators (37 °C, 21% O2, 5% CO2) in full culture medium, containing 10% fetal calf serum (PAA, Linz, Austria). Cell cultures were periodically checked for Mycoplasma contamination.
(§2) Subsequently, the dissolved drugs were added. […] Cytotoxicity was expressed as IC50 values calculated from full dose–response curves using GraphPad Prism software. […] Then, the cells were exposed to the indicated drugs (25 or 50 µM) for 14 days. After washing with phosphate-buffered saline (PBS), the cells were fixed with methanol (−20 °C, 20 min) and after another washing step stained with crystal violet (1 h). […] The sum of fluorescence intensities per well was measured with ImageJ and, after blank subtraction, normalized to the untreated cells.
On the technique in general: Formazan colour is commonly taken as a measure of viable cells.

Experiment [2] relates to H520 cells. Briefly: cells. As to conditions: Homo sapiens, NCI-H520, 72 h, read-out: IC50 ± SD. The method, then:
as §1, §2

Experiment [3] has as its system A431 cells. As to the kind of experiment: Long-term clonogenic assay, 14 days. It counts as cell-based, human. As to conditions: 25 and 50 µM, crystal violet, three experiments in duplicates, result in words. The method, then:
Subsequently, the dissolved drugs were added.

For `C#Cc1cccc(Nc2ncnc3cc(OCCOC)c(OCCOC)cc23)c1` [Erlotinib, erlotinib], the IC50 (commonly the concentration needed to halve the response being measured) is 23 ± 2.6 µM in experiment [1] and > 25 µM in experiment [2].

In the case of `O=C1[O][Pt]2([NH][C@@H]3CCCC[C@H]3[NH]2)[O]C1=O` [oxaliplatin], the “long-term treatment effect, normalized to untreated cells” value in experiment [3] is recorded as “too low to be seen in this graph”.
